Laboratory results taken from paper PMC7011974, “Benzimidazole derivatives endowed with potent antileishmanial activity” (Journal of Enzyme Inhibition and Medicinal Chemistry, 2017).

Experiments:
L. tropica promastigotes = assay: Antileishmanial activity on L. tropica promastigotes (MTT); assay type: cell-based, Leishmania tropica; conditions: for IC50: Leishmania tropica, 72 h, promastigotes, MTT, starred values mean of two experiments, read-out: IC50 (µM) L. tropica; for Ratio IC50 miltef./IC50 compd., L. tropica: fold potency versus miltefosine; for IC50 amph. B ×100/IC50 compd., L. tropica: percent of amphotericin B potency, calculated for each experiment; for Antileishmanial activity in words: promastigotes of L. tropica and/or L. infantum
[1] = tested on: L. infantum promastigotes; assay: Antileishmanial activity on L. infantum promastigotes (MTT); assay type: cell-based, Leishmania infantum; conditions: for IC50: Leishmania infantum, promastigotes, MTT, 72 h, read-out: IC50 (µM) L. infantum; for Ratio IC50 miltef./IC50 compd., L. infantum: fold potency versus miltefosine; for IC50 amph. B ×100/IC50 compd., L. infantum: percent of amphotericin B potency, calculated for each experiment
[2] = tested on: monkey kidney (Vero76) cells; assay: Cytotoxicity on Vero-76 cells (crystal violet); conditions: selectivity index, Vero76
[3] = Cytotoxicity on Vero-76 cells (crystal violet); conditions: monkey, Vero-76 cells
[4] = tested on: human microvascular endothelial cell line (HMEC-1); assay: Cytotoxicity on HMEC-1 cells (MTT); assay type: cell-based; conditions: for IC50: Homo sapiens, cytotoxicity, HMEC-1 cells, MTT; for SI L. infantum (IC50 HMEC-1/IC50 L. infantum) / SI L. tropica (IC50 HMEC-1/IC50 L. tropica): selectivity index

Structure (SMILES)	IC50 (L. tropica promastigotes)	IC50 amph. B ×100/IC50 compd., L. tropica (L. tropica promastigotes)	IC50 [1]	IC50 amph. B ×100/IC50 compd., L. infantum [1]	melting point	Ratio IC50 miltef./IC50 compd., L. tropica (L. tropica promastigotes)	Ratio IC50 miltef./IC50 compd., L. infantum [1]	SI L. infantum (IC50 Vero76/IC50 L. infantum) [2]	SI L. tropica (IC50 Vero76/IC50 L. tropica) [2]	IC50 [3]	Antileishmanial activity in words (L. tropica promastigotes)	IC50 [4]	SI L. infantum (IC50 HMEC-1/IC50 L. infantum) [4]	SI L. tropica (IC50 HMEC-1/IC50 L. tropica) [4]
CCCCCCCCCCCc1n(Cc2ccccc2)c2ccccc2[n+]1Cc1ccccc1.[Cl-] [Compound 5, 1,3-Dibenzyl-2-undecyl-1H-benzimidazol-3-ium chloride]	0.78 µM	10.5	0.61 ± 0.05 µM	25.6	223.3 to 225.3 °C	55.5	51.3					1.38 ± 0.17 µM	2.26	1.77
CCCCCCCCCCCCCCCc1n(C)c2ccc([N+](=O)[O-])cc2[n+]1C.[I-] [Compound 10, 1,3-Dimethyl-5-nitro-2-pentadecyl-1 H-benzimidazol-3-ium iodide]	1.4 ± 0.58 µM	7.35	0.96 ± 0.17 µM	12.3	154 to 156 °C	30.9	32.6					2.11 ± 0.45 µM	2.20	1.51
CCCCCCCCCCCCCCCc1n(C)c2ccc(C(F)(F)F)cc2[n+]1C.[I-] [Compound 9, 1,3-Dimethyl-2-pentadecyl-5-trifluoromethyl-1 H-benzimidazol-3-ium iodide]	0.87 ± 0.16 µM	11.9	1.32 ± 0.3 µM	8.9	116 to 118 °C	49.7	23.7					1.86 ± 0.34 µM	1.41	2.14
CCCCCCCCCCCCCCCc1nc2ccccc2n1Cc1ccccc1 [Compound 13, 1-Benzyl-2-pentadecyl-1H-benzimidazole]	> 11.9 µM		> 11.9 µM		60.7 to 61.8 °C						inactive	> 47 µM		

Continued, in another order:

IC50 (L. tropica promastigotes)	IC50 amph. B ×100/IC50 compd., L. tropica (L. tropica promastigotes)	IC50 [1]	IC50 amph. B ×100/IC50 compd., L. infantum [1]	melting point	Structure (SMILES)	Ratio IC50 miltef./IC50 compd., L. tropica (L. tropica promastigotes)	Ratio IC50 miltef./IC50 compd., L. infantum [1]	SI L. infantum (IC50 Vero76/IC50 L. infantum) [2]	SI L. tropica (IC50 Vero76/IC50 L. tropica) [2]	IC50 [3]	Antileishmanial activity in words (L. tropica promastigotes)	IC50 [4]	SI L. infantum (IC50 HMEC-1/IC50 L. infantum) [4]	SI L. tropica (IC50 HMEC-1/IC50 L. tropica) [4]
13.5 ± 2.21 µM	1.31	17.4 ± 1.49 µM	1.20		Oc1ccc(-c2nc3cc(C(F)(F)F)ccc3n2C[C@@H]2CCCN3CCCC[C@H]23)cc1 [Compound 37]	3.2	1.8	4.49	5.76	78 µM				
21.1 ± 5.84 µM	0.84	32.7 ± 3.92 µM	0.64		CCN(CC)CCCn1c(-c2ccc(OC)cc2)nc2cc(C(F)(F)F)ccc21 [Compound 27]	2.1	1.0	>3	>4.74	> 100 µM	moderately active			
12.6 ± 4.54 µM	0.69	12.5 ± 3.51 µM	0.95		FC(F)(F)c1ccc2c(c1)nc(-c1ccc(Cl)cc1)n2C[C@@H]1CCCN2CCCC[C@H]12 [Compound 36, N-lupinyl-5-trifluoromethyl-2-(4-chlorophenyl)benzimidazole]	3.4	2.5	1.92	1.90	24 µM				
0.49 µM	16.7	0.64 ± 0.01 µM	24.4	215.7 to 219.3 °C	CCCCCCCCCCCCCCCc1n(C)c2ccccc2[n+]1Cc1ccccc1.[Cl-] [Compound 14, 3-Benzyl-1-methyl-2-pentadecyl-1 H-benzimidazol-3-ium chloride]	88.3	48.8					0.91 ± 0.19 µM	1.42	1.86
